From patent US20240025919A1, “AZA-TETRACYCLIC OXAZEPINE COMPOUNDS AND USES THEREOF” (Genentech, Inc., priority 2022, published 2024)

Key:
[1] = target: T1, KRAS WT (Homo sapiens (Human), UniProt P01116); assay: KRAS WT Biochemical Assay, BODIPY-GDP Exchange TR-FRET (Example 502; 0.06 nM KRAS WT, 15 nM GDP, 300 nM SOS1, 120-minute incubation); settings: read-out: KRas HTRF IC50
In short: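 IC50 from a 4-parameter Hill fit of percent inhibition, itself the TR-FRET 520/490 nm ratio scaled between DMSO and a fully inhibiting control. Reaction: 300 nM SOS1 and 300 nM BODIPY-GDP added to preformed 0.06 nM KRAS WT/15 nM GDP/Tb-streptavidin complex; 120 min incubation; pH 7.5 HEPES, MgCl2, DTT.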

[2] = target: KRAS G12D (Homo sapiens (Human), UniProt P01116, G12D); assay: KRAS G12D LoEnz Biochemical Assay, BODIPY-GDP Exchange TR-FRET (SOS1-mediated nucleotide exchange); settings: read-out: KRas (G12D) GDP HTRF IC50
[3] = target: T1, KRAS WT; assay: KRAS WT Biochemical Assay, BODIPY-GDP Exchange TR-FRET (Example 501; 3 nM KRAS WT, 3 nM SOS1, 60-minute incubation); settings: read-out: KRas(wt) GDP HTRF IC50
In short: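 SOS1-mediated exchange assay: 3 nM biotin-KRAS WT with terbium-streptavidin, started with 3 nM SOS1 and 300 nM BODIPY-GDP, HEPES pH 7.5 with MgCl2. TR-FRET (520/490 nm) read after 60 min; normalized to DMSO and full-inhibition control, IC50 from 4-parameter Hill fit.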

T1 sequence (P01116-2 other isoform, or with tags, fused parts or gaps): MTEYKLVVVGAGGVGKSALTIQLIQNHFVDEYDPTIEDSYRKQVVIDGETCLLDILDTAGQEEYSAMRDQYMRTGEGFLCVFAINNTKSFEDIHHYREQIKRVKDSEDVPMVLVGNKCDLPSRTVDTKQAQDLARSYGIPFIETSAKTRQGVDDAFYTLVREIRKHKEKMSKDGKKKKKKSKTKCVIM
Chain of KRAS G12D (P01116-2 other isoform, or with tags, fused parts or gaps G12D): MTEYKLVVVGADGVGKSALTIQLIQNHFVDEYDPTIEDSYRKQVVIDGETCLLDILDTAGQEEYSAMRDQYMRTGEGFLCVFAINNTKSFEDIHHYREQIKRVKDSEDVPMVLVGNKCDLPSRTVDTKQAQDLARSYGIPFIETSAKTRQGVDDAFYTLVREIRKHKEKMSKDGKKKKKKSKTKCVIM

Cc1c(F)c(N)cc(-c2nc3c4c(nc(OC[C@@]56CCCN5C[C@H](F)C6)nc4c2F)N2C[C@H]4CC[C@H](N4)[C@H]2[C@H](C)O3)c1C(F)(F)F [Compound 6, 2-Fluoro-5-((5S,5aS,6S,9R)-1-fluoro-12-(((2R,7aS)-2-fluorotetrahydro-1H-pyrrolizin-7a(5H)-yl)methoxy)-5-methyl-5a,6,7,8,9,10-hexahydro-5H-4-oxa-3,10a,11,13,14-pentaaza-6,9-methanonaphtho[1,8-ab]heptalen-2-yl)-3-methyl-4-(trifluoromethyl)aniline]
IC50 [1]: 0.548 nM
IC50 [2]: 0.074 nM
IC50 [3]: 0.48 nM

C#Cc1c(F)ccc2cc(O)cc(-c3nc4c5c(nc(OC[C@@]67CCCN6C[C@H](F)C7)nc5c3F)N3C[C@H]5CC[C@H](N5)[C@H]3[C@H](C)O4)c12 [Compound 7, 5-Ethynyl-6-fluoro-4-((5S,5aS,6S,9R)-1-fluoro-12-(((2R,7aS)-2-fluorotetrahydro-1H-pyrrolizin-7a(5H)-yl)methoxy)-5-methyl-5a,6,7,8,9,10-hexahydro-5H-4-oxa-3,10a,11,13,14-pentaaza-6,9-methanonaphtho[1,8-ab]heptalen-2-yl)naphthalen-2-ol]
IC50 [1]: 0.288 nM
IC50 [2]: 0.059 nM
IC50 [3]: 0.296 nM

CCc1cccc2cc(O)cc(-c3nc4c5c(nc(OC[C@@]67CCCN6C[C@H](F)C7)nc5c3F)N3C[C@H]5CC[C@H](N5)[C@H]3[C@H](C)O4)c12 [Compound 10, 5-ethyl-4-((5S,5aS,6S,9R)-1-fluoro-12-(((2R,7aS)-2-fluorotetrahydro-1H-pyrrolizin-7a(5H)-yl)methoxy)-5-methyl-5a,6,7,8,9,10-hexahydro-5H-4-oxa-3,10a,11,13,14-pentaaza-6,9-methanonaphtho[1,8-ab]heptalen-2-yl)naphthalen-2-ol]
IC50 [1]: 13.3 nM
IC50 [2]: 0.082 nM
IC50 [3]: 6.46 nM

Cc1cc(-c2nc3c4c(nc(OC[C@@]56CCCN5C[C@H](F)C6)nc4c2F)N2C[C@H]4CC[C@H](N4)[C@H]2[C@H](C)O3)cc(N)c1F [Compound 13, 2-fluoro-5-((5S,5aS,6S,9R)-1-fluoro-12-(((2R,7aS)-2-fluorotetrahydro-1H-pyrrolizin-7a(5H)-yl)methoxy)-5-methyl-5a,6,7,8,9,10-hexahydro-5H-4-oxa-3,10a,11,13,14-pentaaza-6,9-methanonaphtho[1,8-ab]heptalen-2-yl)-3-methylaniline]
IC50 [1]: 1770 nM
IC50 [2]: 30.7 nM
IC50 [3]: 1540 nM

C[C@@H]1Oc2nc(-c3cc(N)cc(F)c3C(F)(F)F)c(F)c3nc(OC[C@@]45CCCN4C[C@H](F)C5)nc(c23)N2C[C@H]3CC[C@H](N3)[C@@H]12 [Compound 17, 3-fluoro-5-((5S,5aS,6S,9R)-1-fluoro-12-(((2R,7aS)-2-fluorotetrahydro-1H-pyrrolizin-7a(5H)-yl)methoxy)-5-methyl-5a,6,7,8,9,10-hexahydro-5H-4-oxa-3,10a,11,13,14-pentaaza-6,9-methanonaphtho[1,8-ab]heptalen-2-yl)-4-(trifluoromethyl)aniline]
IC50 [1]: 1.05 nM
IC50 [2]: 0.133 nM
IC50 [3]: 0.559 nM

Cc1c(F)c(N)cc(-c2nc3c4c(nc(OC[C@@H]5CC[C@H]6COCCN65)nc4c2F)N2C[C@H]4CC[C@H](N4)[C@H]2[C@H](C)O3)c1C(F)(F)F [Compound 31, 2-fluoro-5-((5S,5aS,6S,9R)-1-fluoro-12-(((6S,8aS)-hexahydro-1H-pyrrolo[2,1-c][1,4]oxazin-6-yl)methoxy)-5-methyl-5a,6,7,8,9,10-hexahydro-5H-4-oxa-3,10a,11,13,14-pentaaza-6,9-methanonaphtho[1,8-ab]heptalen-2-yl)-3-methyl-4-(trifluoromethyl)aniline]
IC50 [1]: 7.11 nM
IC50 [2]: 0.087 nM
IC50 [3]: 1.55 nM

Cc1cc(N)c(F)c(-c2nc3c4c(nc(OC[C@@]56CCCN5C[C@H](F)C6)nc4c2F)N2C[C@H]4CC[C@H](N4)[C@H]2[C@H](C)O3)c1C(F)(F)F [Compound 34, 2-Fluoro-3-((5S,5aS,6S,9R)-1-fluoro-12-(((2R,7aS)-2-fluorotetrahydro-1H-pyrrolizin-7a(5H)-yl)methoxy)-5-methyl-5a,6,7,8,9,10-hexahydro-5H-4-oxa-3,10a,11,13,14-pentaaza-6,9-methanonaphtho[1,8-ab]heptalen-2-yl)-5-methyl-4-(trifluoromethyl)aniline]
IC50 [1]: 4.29 nM
IC50 [2]: 0.235 nM
IC50 [3]: 2.13 nM

C=C1CN2CCC[C@@]2(COc2nc3c4c(nc(-c5cc(O)cc6cccc(CC)c56)c(F)c4n2)O[C@@H](C)[C@@H]2[C@@H]4CC[C@H](CN32)N4)C1 [Compound 80]
IC50 [1]: 3.48 nM
IC50 [2]: 0.068 nM
IC50 [3]: 3.39 nM

Cc1c(F)c(N)cc(-c2nc3c4c(nc(OCC5(CN6CCO[C@@H](CF)C6)CC5)nc4c2F)N2C[C@H]4CC[C@H](N4)[C@H]2[C@H](C)O3)c1C(F)(F)F [Compound 172, 2-Fluoro-5-((5S,5aS,6S,9R)-1-fluoro-12-((1-(((R)-2-(fluoromethyl)morpholino)methyl)cyclopropyl)methoxy)-5-methyl-5a,6,7,8,9,10-hexahydro-5H-4-oxa-3,10a,11,13,14-pentaaza-6,9-methanonaphtho[1,8-ab]heptalen-2-yl)-3-methyl-4-(trifluoromethyl)aniline]
IC50 [1]: 11.1 nM
IC50 [2]: 0.24 nM

Cc1c(F)c(N)cc(-c2nc3c4c(nc(OCC5(CN6CC(F)C6)CC5)nc4c2F)N2C[C@H]4CC[C@H](N4)[C@H]2[C@H](C)O3)c1C(F)(F)F [Compound 173, 2-Fluoro-5-((5S,5aS,6S,9R)-1-fluoro-12-((1-((3-fluoroazetidin-1-yl)methyl)cyclopropyl)methoxy)-5-methyl-5a,6,7,8,9,10-hexahydro-5H-4-oxa-3,10a,11,13,14-pentaaza-6,9-methanonaphtho[1,8-ab]heptalene-2-yl)-3-methyl-4-(trifluoromethyl)aniline]
IC50 [1]: 5.95 nM
IC50 [2]: 0.08 nM

Cc1c(F)c(N)cc(-c2nc3c4c(nc(OCC5(CN6CC7(COC7)C6)CC5)nc4c2F)N2C[C@H]4CC[C@H](N4)[C@H]2[C@H](C)O3)c1C(F)(F)F [Compound 174, 5-((5S,5aS,6S,9R)-12-((1-((2-Oxa-azaspiro[3.3]heptan-6-yl)methyl)cyclopropyl)methoxy)-1-fluoro-5-methyl-5a,6,7,8,9,10-hexahydro-5H-4-oxa-3,10a,11,13,14-pentaaza[6,9]methanonaphtho[1,8-ab]heptalene-2-yl)-2-fluoro-3-methyl-4-(trifluoromethyl)aniline]
IC50 [1]: 3.04 nM
IC50 [2]: 3.39 nM

Cc1c(F)c(N)c(F)c(-c2nc3c4c(nc(OC[C@@]56CCCN5C[C@H](F)C6)nc4c2F)N2C[C@H]4CC[C@H](N4)[C@H]2[C@H](C)O3)c1CC(F)F [Compound 175, 4-(2,2-Difluoroethyl)-2,6-difluoro-3-((5S,5aS,6S,9R)-1-fluoro-12-(((2R,7aS)-2-fluorotetrahydro-1H-pyrrolizin-7a(5H)-yl)methoxy)-5-methyl-5a,6,7,8,9,10-hexahydro-5H-4-oxa-3,10a,11,13,14-pentaaza-6,9-methanonaphtho[1,8-ab]heptalen-2-yl)-5-methylaniline]
IC50 [1]: 108 nM
IC50 [2]: 3.39 nM

Cc1cc2[nH]ncc2c(-c2nc3c4c(nc(OC[C@@]56CCCN5C[C@H](F)C6)nc4c2F)N2C[C@H]4CC[C@H](N4)[C@H]2[C@H](C)O3)c1Cl [Compound 176, (5S,5aS,6S,9R)-2-(5-Chloro-6-methyl-1H-indazol-4-yl)-1-fluoro-12-(((2R,7aS)-2-fluorotetrahydro-1H-pyrrolizin-7a(5H)-yl)methoxy)-5-methyl-5a,6,7,8,9,10-hexahydro-5H-4-oxa-3,10a,11,13,14-pentaaza-6,9-methanonaphtho[1,8-ab]heptalene]
IC50 [1]: 809 nM
IC50 [2]: 2.8 nM

Cc1cc(-c2nc3c4c(nc(OC[C@@]56CCCN5C[C@H](F)C6)nc4c2F)N2C[C@H]4CC[C@H](N4)[C@H]2[C@H](C)O3)c(F)c(N)n1 [Compound 177, 3-Fluoro-4-((5S,5aS,6S,9R)-1-fluoro-12-(((2R,7aS)-2-fluorotetrahydro-1H-pyrrolizin-7°(5H)-yl)methoxy)-5-methyl-5°,6,7,8,9,10-hexahydro-5H-4-oxa-3,10°,11,13,14-pentaaza-6,9-methanonaphtho[1,8-ab]heptalen-2-yl)-6-methylpyridin-2-amine]
IC50 [1]: 11700 nM
IC50 [2]: 126 nM

CCc1cccc2nc(N)cc(-c3nc4c5c(nc(OC[C@@]67CCCN6C[C@H](F)C7)nc5c3F)N3C[C@H]5CC[C@H](N5)[C@H]3[C@H](C)O4)c12 [Compound 179, 5-Ethyl-4-((5S,5aS,6S,9R)-1-fluoro-12-(((2R,7aS)-2-fluorotetrahydro-1H-pyrrolizin-7a(5H)-yl)methoxy)-5-methyl-5a,6,7,8,9,10-hexahydro-5H-4-oxa-3,10a,11,13,14-pentaaza-6,9-methanonaphtho[1,8-ab]heptalene-2-yl)quinolin-2-amine]
IC50 [1]: 659 nM
IC50 [2]: 6.64 nM

Cc1c(F)c(N)cc(-c2nc3c4c(nc(OC[C@@]56CCCN5C[C@H](F)C6)nc4c2F)N2C[C@H]4CC[C@H](N4)[C@H]2[C@H](C)O3)c1S(C)(=O)=O [Compound 180, 2-Fluoro-5-((5S,5aS,6S,9R)-1-fluoro-12-(((2R,7aS)-2-fluorotetrahydro-1H-pyrrolizin-7a(5H)-yl)methoxy)-5-methyl-5a,6,7,8,9,10-hexahydro-5H-4-oxa-3,10a,11,13,14-pentaaza-6,9-methanonaphtho[1,8-ab]heptalene-2-yl)-3-methyl-4-(methylsulfonyl)aniline]
IC50 [1]: 2740 nM
IC50 [2]: 17.4 nM
